Three compounds from ChEMBL document CHEMBL4368919, “Identification of the Metabolic Profile of the α-Tubulin-Binding Natural Product (-)-Pironetin” (J Med Chem, 2019) can be followed below.

The test system of one data set is 3Y1 cell line. Nature of the data set: Cell cycle arrest in rat 3Y1 cells assessed as accumulation at G2/M phase after 24 hrs by propidium iodide-staining based flow cytometry relative to (-)-Pironetin. It is filed as ADME. Conditions: 3y1, 24 h; call rule not given here.
In data set [1] the target is T1, Tubulin alpha (Homo sapiens) (UniProt P0DPH7+P68366+Q71U36+P68363+Q9BQE3+Q6PEY2+A6NHL2+Q9NY65). Nature of the data set: Inhibition of tubulin alpha in human A2780 cells assessed as cell growth inhibition after 48 hrs by MTT assay. It is filed as cell-based.
Data set [2] concerns the target T1, Tubulin alpha (Homo sapiens). In words: Inhibition of tubulin alpha in human A2780CP cells assessed as cell growth inhibition after 48 hrs by MTT assay. It is filed as cell-based.
Data set [3] is described as follows: Drug level in human liver microsomes treated with pironetin assessed as compound formation after 30 mins by LC-MS/MS analysis. It is filed as ADME, Microsome. Conditions: 0.5 h.
Data set [4] is described as follows: Inhibition of tubulin alpha in human A2780 cells assessed as reduction in cell growth.
A short description of data set [5]: Stability in human serum assessed as compound remaining at 1.10 mg after 24 hrs by HPLC analysis. It is filed as ADME, cell-free. Conditions: read-out: Stability.
The nature of data set [6]: Stability in mouse serum assessed as compound remaining at 1.30 ml after 24 hrs by HPLC analysis. The format is ADME, cell-free. To be noted: read-out: Stability.
The nature of data set [7]: Stability in rat serum assessed as compound remaining after 24 hrs. It is filed as ADME, cell-free. Conditions: read-out: Stability.
A short description of data set [8]: Half life in human liver microsomes in presence of NADPH regeneration system by LC-MS/MS analysis. It is filed as ADME, Microsome.
Data set [9] is described as follows: Half life in mouse liver microsomes in presence of NADPH regeneration system by LC-MS/MS analysis. It is filed as ADME, Microsome.
Data set [10] can be described thus: Half life in rat liver microsomes in presence of NADPH regeneration system by LC-MS/MS analysis. It is filed as ADME, Microsome.
Data set [11] in a line: Protein binding in human plasma. To be noted: read-out: PPB (converted). It is filed as ADME, cell-free.
Data set [12] in a line: Protein binding in mouse plasma. The format is ADME, cell-free. Conditions: read-out: PPB (converted).
Data set [13] can be described thus: Protein binding in rat plasma. The format is ADME, cell-free. Conditions: read-out: PPB (converted).
The next data set has as its target Cytochrome P450 2C9 (Homo sapiens, UniProt P11712). Nature of the data set: Inhibition of CYP2C9 (unknown origin) using tolbutamide as substrate. The format is ADME.
In the next data set the target is Cytochrome P450 2D6 (Homo sapiens, UniProt P10635). In words: Inhibition of CYP2D6 (unknown origin) using dextromethorphan as substrate. The format is ADME.
Chain of Cytochrome P450 2D6 (P10635 whole entry): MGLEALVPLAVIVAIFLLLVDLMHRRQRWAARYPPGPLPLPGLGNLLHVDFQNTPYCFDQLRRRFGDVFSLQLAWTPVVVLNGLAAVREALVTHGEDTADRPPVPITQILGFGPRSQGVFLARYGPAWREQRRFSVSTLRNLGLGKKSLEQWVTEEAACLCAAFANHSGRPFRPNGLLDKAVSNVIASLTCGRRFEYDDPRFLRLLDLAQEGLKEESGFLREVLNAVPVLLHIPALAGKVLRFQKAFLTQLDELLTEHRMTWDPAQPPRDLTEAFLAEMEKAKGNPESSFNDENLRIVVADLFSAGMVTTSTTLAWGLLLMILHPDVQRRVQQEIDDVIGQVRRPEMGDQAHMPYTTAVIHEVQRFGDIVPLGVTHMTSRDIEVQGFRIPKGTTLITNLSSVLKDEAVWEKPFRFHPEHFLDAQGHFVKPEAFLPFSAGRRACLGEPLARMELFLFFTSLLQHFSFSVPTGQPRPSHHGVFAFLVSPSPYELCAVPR
In data set [14] the target is T2, Cytochrome P450 3A4 (Homo sapiens, UniProt P08684). In words: Inhibition of CYP3A4 (unknown origin) using midazolam as substrate. It is filed as ADME.
T2 sequence (P08684 whole entry): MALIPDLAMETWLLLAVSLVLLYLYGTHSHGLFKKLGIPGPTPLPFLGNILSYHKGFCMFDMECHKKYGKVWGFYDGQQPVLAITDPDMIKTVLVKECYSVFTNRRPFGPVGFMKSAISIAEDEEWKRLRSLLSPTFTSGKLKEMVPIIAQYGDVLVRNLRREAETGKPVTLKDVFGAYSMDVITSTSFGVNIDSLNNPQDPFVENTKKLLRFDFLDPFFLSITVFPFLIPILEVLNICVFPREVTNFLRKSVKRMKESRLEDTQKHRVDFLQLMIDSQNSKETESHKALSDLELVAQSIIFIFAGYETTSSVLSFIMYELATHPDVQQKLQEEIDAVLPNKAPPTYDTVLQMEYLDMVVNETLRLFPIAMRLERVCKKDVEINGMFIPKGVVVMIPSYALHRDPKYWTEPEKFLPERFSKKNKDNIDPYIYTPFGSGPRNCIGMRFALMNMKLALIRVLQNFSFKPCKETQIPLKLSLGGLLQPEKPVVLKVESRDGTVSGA
The target of data set [15] is T2, Cytochrome P450 3A4. Nature of the data set: Inhibition of CYP3A4 (unknown origin) using testosterone as substrate. The format is ADME.

Chain of Cytochrome P450 2C9 (P11712 whole entry): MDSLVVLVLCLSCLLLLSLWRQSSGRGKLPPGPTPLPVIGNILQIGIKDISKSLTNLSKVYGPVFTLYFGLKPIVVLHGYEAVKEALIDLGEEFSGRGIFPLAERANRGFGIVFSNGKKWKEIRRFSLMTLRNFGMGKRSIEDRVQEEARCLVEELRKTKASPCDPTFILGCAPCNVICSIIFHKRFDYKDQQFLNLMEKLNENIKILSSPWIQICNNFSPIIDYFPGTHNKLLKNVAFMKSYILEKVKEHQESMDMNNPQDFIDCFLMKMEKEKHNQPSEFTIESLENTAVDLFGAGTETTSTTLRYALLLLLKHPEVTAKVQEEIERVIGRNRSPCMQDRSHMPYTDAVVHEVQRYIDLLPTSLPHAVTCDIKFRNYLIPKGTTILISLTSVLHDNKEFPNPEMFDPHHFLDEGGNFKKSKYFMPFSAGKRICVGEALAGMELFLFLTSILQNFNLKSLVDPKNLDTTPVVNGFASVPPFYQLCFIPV

Turning to `C/C=C/C[C@H](C)[C@@H](O)[C@@H](C)[C@H](O)C[C@H]1OC(=O)C=C[C@H]1CC`, the Activity entry in the data set with 3Y1 cell line is “Toxic”. For the same compound, the results for the GI50 in [1] and in data set [2] were 0.0296 µM and 0.0823 µM, respectively. Besides, the Drug uptake result in data set [3] was “Active”.
For `CC[C@@H]1C=CC(=O)O[C@@H]1C[C@@H](O)[C@H](C)[C@H](OC)[C@@H](C)C[C@@H]1O[C@H]1C` (relative stereo), the “fold change (FC)” value in the data set on 3Y1 cell line is 25. In addition, the GI50 worked out at 0.218 µM in [1] and 1.01 µM in [2]. The Drug uptake result in [3] is “Active”. Moreover, the IC50 in [4] was determined as 0.54 µM.
For the compound `C/C=C/C[C@H](C)[C@@H](OC)[C@@H](C)[C@H](O)C[C@H]1OC(=O)C=C[C@H]1CC` [PIRONETIN], the results for the remaining at 24 h in data set [5], in data set [6] and in data set [7] were 50%, 35% and 56%, respectively. Moreover, the t1/2 is 7 min in [8], under 15 min in data set [9] and under 15 min in data set [10]. In addition, the fraction unbound in [11] is 0.13; in data set [12] it was 0.02; in [13], 0.07. Also, the “inhibition (INH)” value on Cytochrome P450 2C9, against Cytochrome P450 2D6, against Cytochrome P450 3A4 [14] and against Cytochrome P450 3A4 [15] was “Active” throughout. In addition, the concentration for 50% growth inhibition (GI50) was determined as 0.0222 µM in data set [1] and 0.0223 µM in data set [2]. Further, the 50% inhibitory concentration (IC50) in [4] turned out to be 0.026 µM.
